For 20 molecules, IC50 results are on record in patent US20260035365A1, “1H-PYRROLO[3,2-B]PYRIDINE DERIVATIVES AS IRREVERSIBLE INHIBITORS OF MUTANT EGFR FOR THE TREATMENT OF CANCER” (Bayer Aktiengesellschaft, priority 2022, published 2026).

The test system of one assay is BA/F3 (insSVD) cells. The experiment in a line: Ba/F3 cell survival assay (Cell Titer-Glo), EGFR-insSVD. Format: cell-based. The settings on record: Mus musculus, BaF3, 48 h, without IL-3, with EGF. An outline of the steps:
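Viability read by CellTiter-Glo luminescence after 48 h compound exposure at 37° C, 4000 cells/well. Retrovirally transduced, puromycin-selected Ba/F3 lines carrying EGFR-insSVD ± T790M grew IL-3-free with 10 ng/mL EGF for 2 days beforehand; compound delivered by 100 nL pin.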
In general terms: ATP-based viability assays read luminescence as a measure of living cells.

Assay [1] has as its target mutEGFR (D770_N771insNPG, T790). The assay is described as follows: mutEGFR (D770_N771insNPG, T790) kinase assay. In kind it is biochemical, human.
In assay [2] the target is mutEGFR (D770_N771insSVD) (Homo sapiens, UniProt P00533, INS767SVD). The experiment in a line: Exon20-mutant-EGFR (D770_N771insSVD) TR-FRET kinase assay. In kind it is biochemical. Conditions: 2 mM ATP, 15 min preincubation. An outline of the steps: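 GST-fused human EGFR fragment R669-A1210 carrying the SVD insertion, Sf9-expressed, typically 15 pg/μl, was preincubated with compound for 15 min at 22° C in pH 7.0 Hepes/MgCl2 buffer. Phosphorylation was read by HTRF (665/620 nm ratio), normalised to no-inhibitor and no-enzyme controls.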
Sequence of mutEGFR (D770_N771insSVD) (P00533 with tags, fused parts or gaps INS767SVD limits assumed): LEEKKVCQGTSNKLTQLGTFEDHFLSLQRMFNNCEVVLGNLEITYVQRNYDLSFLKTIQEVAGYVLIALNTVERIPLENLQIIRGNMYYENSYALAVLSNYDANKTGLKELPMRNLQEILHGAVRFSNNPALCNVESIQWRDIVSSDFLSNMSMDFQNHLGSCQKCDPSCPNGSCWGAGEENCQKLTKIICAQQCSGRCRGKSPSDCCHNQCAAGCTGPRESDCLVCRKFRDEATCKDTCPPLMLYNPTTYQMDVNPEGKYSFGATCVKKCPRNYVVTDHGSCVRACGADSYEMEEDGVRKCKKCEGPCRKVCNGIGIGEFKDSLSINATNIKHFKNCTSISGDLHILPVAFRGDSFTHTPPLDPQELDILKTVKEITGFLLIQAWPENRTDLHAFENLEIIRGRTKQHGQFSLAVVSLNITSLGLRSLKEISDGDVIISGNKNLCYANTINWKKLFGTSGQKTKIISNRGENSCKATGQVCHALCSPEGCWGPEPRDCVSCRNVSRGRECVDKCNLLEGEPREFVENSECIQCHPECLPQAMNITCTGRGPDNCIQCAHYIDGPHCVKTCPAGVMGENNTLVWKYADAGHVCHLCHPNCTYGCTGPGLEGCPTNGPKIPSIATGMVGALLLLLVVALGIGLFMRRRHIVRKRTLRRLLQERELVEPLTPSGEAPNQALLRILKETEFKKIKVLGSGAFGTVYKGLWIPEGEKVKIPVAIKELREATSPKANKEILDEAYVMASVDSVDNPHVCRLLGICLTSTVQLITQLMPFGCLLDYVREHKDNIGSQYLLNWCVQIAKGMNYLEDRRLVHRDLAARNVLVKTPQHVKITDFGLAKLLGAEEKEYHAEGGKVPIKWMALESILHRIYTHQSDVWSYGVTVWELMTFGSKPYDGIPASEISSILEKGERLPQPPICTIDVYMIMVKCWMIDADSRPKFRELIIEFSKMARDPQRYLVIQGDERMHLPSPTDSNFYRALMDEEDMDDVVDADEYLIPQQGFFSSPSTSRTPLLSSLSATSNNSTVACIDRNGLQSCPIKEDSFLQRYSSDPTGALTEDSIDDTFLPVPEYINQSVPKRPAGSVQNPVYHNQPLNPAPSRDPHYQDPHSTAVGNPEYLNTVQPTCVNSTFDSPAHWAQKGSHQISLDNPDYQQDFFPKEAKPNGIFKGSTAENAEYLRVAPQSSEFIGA
Background: Time-resolved FRET reads energy transfer from a long-lived donor to a nearby acceptor.

Sequence of mutEGFR (D770_N771insNPG, T790) (P00533 with tags, fused parts or gaps INS770NPG limits assumed): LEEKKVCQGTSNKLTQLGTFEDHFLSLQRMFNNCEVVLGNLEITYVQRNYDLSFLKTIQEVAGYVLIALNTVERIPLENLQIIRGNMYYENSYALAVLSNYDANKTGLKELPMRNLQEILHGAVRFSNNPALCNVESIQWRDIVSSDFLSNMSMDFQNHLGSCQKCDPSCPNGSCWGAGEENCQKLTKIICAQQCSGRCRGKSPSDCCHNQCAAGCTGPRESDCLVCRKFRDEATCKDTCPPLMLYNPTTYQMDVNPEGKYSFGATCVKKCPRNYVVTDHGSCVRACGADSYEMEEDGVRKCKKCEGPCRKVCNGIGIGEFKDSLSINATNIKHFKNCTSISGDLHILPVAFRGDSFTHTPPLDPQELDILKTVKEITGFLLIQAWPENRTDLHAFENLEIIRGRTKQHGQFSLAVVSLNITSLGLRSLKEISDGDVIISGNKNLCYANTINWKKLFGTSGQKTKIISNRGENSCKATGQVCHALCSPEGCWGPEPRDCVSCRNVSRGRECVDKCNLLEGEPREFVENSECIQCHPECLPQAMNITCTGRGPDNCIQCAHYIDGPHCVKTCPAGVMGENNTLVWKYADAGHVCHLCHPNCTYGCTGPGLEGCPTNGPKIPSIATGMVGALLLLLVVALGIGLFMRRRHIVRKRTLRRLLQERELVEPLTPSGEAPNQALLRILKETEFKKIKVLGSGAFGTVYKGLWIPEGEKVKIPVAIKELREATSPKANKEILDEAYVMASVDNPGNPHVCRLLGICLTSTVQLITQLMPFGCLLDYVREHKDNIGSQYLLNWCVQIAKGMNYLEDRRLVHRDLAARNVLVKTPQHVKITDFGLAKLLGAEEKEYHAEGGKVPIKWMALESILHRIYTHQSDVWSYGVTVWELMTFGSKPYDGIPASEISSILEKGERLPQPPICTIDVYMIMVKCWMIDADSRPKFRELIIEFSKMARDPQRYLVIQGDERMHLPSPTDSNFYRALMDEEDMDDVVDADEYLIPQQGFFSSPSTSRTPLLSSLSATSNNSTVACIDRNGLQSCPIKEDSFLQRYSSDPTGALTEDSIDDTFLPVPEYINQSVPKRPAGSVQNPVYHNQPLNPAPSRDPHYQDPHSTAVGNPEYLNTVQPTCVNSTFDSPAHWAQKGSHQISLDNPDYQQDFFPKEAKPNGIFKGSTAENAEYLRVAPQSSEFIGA

Regarding `CN(C)C/C=C/C(=O)N1CCC[C@H]1COc1cnccc1-c1[nH]c2cccnc2c1-c1ccc(F)c(OC(F)(F)F)c1` [Example 107, (2E)-4-(dimethylamino)-1-[(2S)-2-{[(4-{3-[4-fluoro-3-(trifluoromethoxy)phenyl]-1H-pyrrolo[3,2-b]pyridin-2-yl}pyridin-3-yl)oxy]methyl}pyrrolidin-1-yl]but-2-en-1-one], the IC50 – broadly, the concentration at which inhibition is half-maximal – in the assay with BA/F3 (insSVD) cells is 1510 nM; in assay [1], 342 nM; in assay [2], 94.5 nM.
The matching figures for `C=CS(=O)(=O)N1CCC[C@H]1COc1cnccc1-c1[nH]c2cccnc2c1-c1ccc(F)c(OC(F)(F)F)c1` [Example 108, 2-(3-{[(2S)-1-(ethenesulfonyl)pyrrolidin-2-yl]methoxy}pyridin-4-yl)-3-[4-fluoro-3-(trifluoromethoxy)phenyl]-1H-pyrrolo[3,2-b]pyridine]: 70.4 nM, 2.41 nM and 0.557 nM.
Turning to `C=CC(=O)N1CCC[C@H]1COc1cncc(F)c1-c1[nH]c2cccnc2c1-c1ccccc1` [Example 109, 1-[(2S)-2-({[5-fluoro-4-(3-phenyl-1H-pyrrolo[3,2-b]pyridin-2-yl)pyridin-3-yl]oxy}methyl)pyrrolidin-1-yl]prop-2-en-1-one], the figures for the IC50 (with BA/F3 (insSVD) cells; in assay [1]; in assay [2]) were 46.6 nM, 83.7 nM and 0.573 nM, respectively.
`C=CC(=O)N1C[C@@H](C)C[C@H]1COc1cnccc1-c1[nH]c2cccnc2c1-c1ccccc1` [Example 110, 1-[(2S,4S)-4-methyl-2-({[4-(3-phenyl-1H-pyrrolo[3,2-b]pyridin-2-yl)pyridin-3-yl]oxy}methyl)pyrrolidin-1-yl]prop-2-en-1-one]: the IC50 with BA/F3 (insSVD) cells worked out at 37.5 nM; in assay [1], 5.97 nM; in assay [2], 1.27 nM.
The matching figures for `C=CC(=O)N1CC(F)(F)C[C@H]1COc1cnccc1-c1[nH]c2cccnc2c1-c1ccccc1` [Example 112, 1-[(2S)-4,4-difluoro-2-({[4-(3-phenyl-1H-pyrrolo[3,2-b]pyridin-2-yl)pyridin-3-yl]oxy}methyl)pyrrolidin-1-yl]prop-2-en-1-one]: 17.5 nM, 0.979 nM and 0.215 nM.
Consider `C=CC(=O)N1C=C(F)C[C@H]1COc1cnccc1-c1[nH]c2cccnc2c1-c1ccccc1` [Example 113, 1-[(2S)-4-fluoro-2-({[4-(3-phenyl-1H-pyrrolo[3,2-b]pyridin-2-yl)pyridin-3-yl]oxy}methyl)-2,3-dihydro-1H-pyrrol-1-yl]prop-2-en-1-one], for which the figures for the half-maximal inhibitory concentration (IC50) (in the assay on BA/F3 (insSVD) cells; in assay [1]; in assay [2]) were 9.99 nM, 0.724 nM and 0.114 nM, respectively.
Regarding `C=CC(=O)N1C[C@@H](F)C[C@H]1COc1cnccc1-c1[nH]c2cccnc2c1-c1ccccc1` [Example 114, 1-[(2S,4S)-4-fluoro-2-({[4-(3-phenyl-1H-pyrrolo[3,2-b]pyridin-2-yl)pyridin-3-yl]oxy}methyl)pyrrolidin-1-yl]prop-2-en-1-one], the IC50 with BA/F3 (insSVD) cells amounted to 38.9 nM; in assay [1], 4.35 nM; in assay [2], 0.96 nM.
The matching figures for `C=CC(=O)N1CC=C[C@H]1COc1cnccc1-c1[nH]c2cccnc2c1-c1ccccc1` [Example 115, 1-[(2S)-2-({[4-(3-phenyl-1H-pyrrolo[3,2-b]pyridin-2-yl)pyridin-3-yl]oxy}methyl)-2,5-dihydro-1H-pyrrol-1-yl]prop-2-en-1-one]: 12.2 nM, 0.875 nM and 0.281 nM.
The matching figures for `C#CC(=O)N1CC[C@@H](Oc2cnccc2-c2[nH]c3cccnc3c2-c2cc(Cl)ccc2F)C1` [Example 128, 1-[(3R)-3-({4-[3-(5-chloro-2-fluorophenyl)-1H-pyrrolo[3,2-b]pyridin-2-yl]pyridin-3-yl}oxy)pyrrolidin-1-yl]prop-2-yn-1-one]: 765 nM, 208 nM and 63 nM.
The matching figures for `C=CC(=O)N1CCC[C@H]1COc1cncc(F)c1-c1[nH]c2cccnc2c1-c1cc(Cl)ccc1F` [Example 129, 1-{(2S)-2-[({4-[3-(5-chloro-2-fluorophenyl)-1H-pyrrolo[3,2-b]pyridin-2-yl]-5-fluoropyridin-3-yl}oxy)methyl]pyrrolidin-1-yl}prop-2-en-1-one]: 110 nM, 92.6 nM and 1 nM.
With `C=CC(=O)N1CCC[C@H]1COc1cnccc1-c1[nH]c2c(C)ccnc2c1-c1ccccc1` [Example 135, 1-[(2S)-2-({[4-(7-methyl-3-phenyl-1H-pyrrolo[3,2-b]pyridin-2-yl)pyridin-3-yl]oxy}methyl)pyrrolidin-1-yl]prop-2-en-1-one], the IC50 in the assay with BA/F3 (insSVD) cells is 16.1 nM; in assay [1], 1.83 nM; in assay [2], 0.589 nM.
As for `C=CS(=O)(=O)N1CCC[C@H]1COc1cnccc1-c1[nH]c2c(C)ccnc2c1-c1ccccc1` [Example 136, 2-(3-{[(2S)-1-(ethenesulfonyl)pyrrolidin-2-yl]methoxy}pyridin-4-yl)-7-methyl-3-phenyl-1H-pyrrolo[3,2-b]pyridine], the IC50 came out at 8.43 nM with BA/F3 (insSVD) cells, 0.706 nM in assay [1] and 0.214 nM in assay [2].
For `C=CC(=O)N1CCC[C@H]1COc1cnccc1-c1[nH]c2c(C)ccnc2c1-c1cc(Cl)ccc1F` [Example 137, 1-{(2S)-2-[({4-[3-(5-chloro-2-fluorophenyl)-7-methyl-1H-pyrrolo[3,2-b]pyridin-2-yl]pyridin-3-yl}oxy)methyl]pyrrolidin-1-yl}prop-2-en-1-one], the IC50 was 25.1 nM with BA/F3 (insSVD) cells, 1.55 nM in assay [1] and 0.724 nM in assay [2].
Turning to `C=CS(=O)(=O)N1CCC[C@H]1COc1cnccc1-c1[nH]c2c(C)ccnc2c1-c1cc(Cl)ccc1F` [Example 138, 3-(5-chloro-2-fluorophenyl)-2-(3-{[(2S)-1-(ethenesulfonyl)pyrrolidin-2-yl]methoxy}pyridin-4-yl)-7-methyl-1H-pyrrolo[3,2-b]pyridine], the results for the IC50 (in the assay with BA/F3 (insSVD) cells; in assay [1]; in assay [2]) were 27 nM, 1.36 nM and 0.582 nM, respectively.
For `C=CS(=O)(=O)N1CC[C@@]1(C)COc1cnccc1-c1[nH]c2cccnc2c1-c1ccccc1` [Example 146, 2-(3-{[(2S)-1-(ethenesulfonyl)-2-methylazetidin-2-yl]methoxy}pyridin-4-yl)-3-phenyl-1H-pyrrolo[3,2-b]pyridine] the same measures were 1240 nM, 265 nM and 32.7 nM.
For `C=CC(=O)N1CCC1(C)COc1cnccc1-c1[nH]c2cccnc2c1-c1cccc(C(F)(F)F)c1` (stereo not drawn) [Example 147, 1-[(2IRS)-2-methyl-2-{[(4-{3-[3-(trifluoromethyl)phenyl]-1H-pyrrolo[3,2-b]pyridin-2-yl}pyridin-3-yl)oxy]methyl}azetidin-1-yl]prop-2-en-1-one] the same measures were 6530 nM, 3680 nM and 699 nM.
Take `C=CC(=O)N1CCOCC1COc1cnccc1-c1[nH]c2cccnc2c1-c1ccccc1` (stereo not drawn) [Example 149, 1-[3-({[4-(3-phenyl-1H-pyrrolo[3,2-b]pyridin-2-yl)pyridin-3-yl]oxy}methyl)morpholin-4-yl]prop-2-en-1-one]: the IC50 in the assay with BA/F3 (insSVD) cells was found to be 1290 nM; in assay [1], 17700 nM; in assay [2], 775 nM.
For `CN(C)C/C=C/C(=O)N1CCOCC1COc1cnccc1-c1[nH]c2cccnc2c1-c1ccccc1` (stereo not drawn) [Example 150, (2E)-4-(dimethylamino)-1-[3-({[4-(3-phenyl-1H-pyrrolo[3,2-b]pyridin-2-yl)pyridin-3-yl]oxy}methyl)morpholin-4-yl]but-2-en-1-one] the same measures were 9810 nM, greater than 20000 nM and 4660 nM.
For `C=CC(=O)N1CCOCC1COc1cnccc1-c1[nH]c2cccnc2c1-c1cc(Cl)ccc1F` (stereo not drawn) [Example 151, 1-{3-[({4-[3-(5-chloro-2-fluorophenyl)-1H-pyrrolo[3,2-b]pyridin-2-yl]pyridin-3-yl}oxy)methyl]morpholin-4-yl}prop-2-en-1-one], the IC50 is 282 nM in the assay on BA/F3 (insSVD) cells, 81.1 nM in assay [1] and 11 nM in assay [2].
With `CN(C)C/C=C/C(=O)N1CCOCC1COc1cnccc1-c1[nH]c2cccnc2c1-c1cc(Cl)ccc1F` (stereo not drawn) [Example 152, (2E)-1-{3-[({4-[3-(5-chloro-2-fluorophenyl)-1H-pyrrolo[3,2-b]pyridin-2-yl]pyridin-3-yl}oxy)methyl]morpholin-4-yl}-4-(dimethylamino)but-2-en-1-one], the figures for the IC50 (in the assay with BA/F3 (insSVD) cells; in assay [1]; in assay [2]) were 1880 nM, 353 nM and 164 nM, respectively.
